The values that follow come from US11197918B2, “Pharmaceutical composition for preventing or treating neovascular disease, containing collagen type i and pigment epithelium derived factor peptide as active ingredients” (NexThera Co., Ltd., priority 2017, dated 2021).

One series concerns HUVECs cells. Kind of series: Tube formation assay in VEGF-165-induced HUVECs. In kind it is cell-based, human. As for the experimental part:
48-well plates were coated with 200 μl Matrigel and maintained at 37° C. for 1 hour, and HUVECs cells were stained with Calcein-AM for 15 minutes at 37° C.
The stained HUVECs cells were dispensed into 2×10^4 cells in each well of a Matrigel-coated plate and treated with recombinant human VEGF-165 into each well to induce the tube formation of the cells.
Thereafter, collagen type I (collagen type I alpha 1, partial [Sus scrofa] GenBank: AAR03833.1) and 34-mer pigment epithelium derived factor peptide (DPFFKVPVNKLAAAVSNFGYDLYRVRSSTSPTTN: SEQ ID NO: 1) were treated separately, respectively, or mixed together and treated and incubated for 4 hours at 37° C., and the degree of tube formation of each group was confirmed.
The degree of tube formation was confirmed by taking pictures with a Micromanipulator (Olympus) and compared by measuring the length of the tube.

For series [1], the system named is choroidal neovascularization (CNV). Kind of series: Laser-induced choroidal neovascularization model, intravitreal injection immediately after laser irradiation. In kind it is in vivo, C57BL/6 mice. As to conditions: intraocular injection for 5 days, day 14 after laser (FIG. 2A, 2B). As for the experimental part: 5-8 week old C57BL/6 mice were purchased from Orient and used.
The pupils of each mouse were dilated using 5 mg/mL Tropicamide (santen pharmaceutical co. ltd, Kita-ku, Osaka, Japan) eye drops and 100 mg/kg ketamine (Huons, SEONGNAM-SI, GYEONGGI-DO, Korea) and 10 mg/kg xylazine (BAYER, Leverkusen, Germany) were anesthetized by intraperitoneal injection.
After anesthesia, the mice were fixed to the mouse holder, and a laser beam of 150 to 210 mW intensity was irradiated for 0.1 second using a slit lamp microscope laser system to prepare four lesions of 50-100 μm size in the retinas of mice at 3, 6, 9 and 12 o'clock. At this time, droplets should be formed by the laser beam, which are important for breaking Bruch's membranes to form neovascularization (CNV). […]
The stained eyeball was separated and placed in 10% formalin to fix for 30 minutes, and then muscles, corneas, irises, lenses and vitreous bodies around the eyeball were carefully removed not to hurt the eye's retina fixed on the microscope and four sections were cut at 3, 6, 9, and 12 o'clock, covered with coverslip, the lesion was photographed using a fluorescence microscope, and the size was measured to compare with the control group.

Series [2] has the same test system. Nature of the series: Choroidal neovascularization model with complete neovascularization, treatment on day 7 after laser irradiation. Type of series: in vivo, C57BL/6 mice. Conditions: 0.1% collagen type I, 25 pmol peptide or their mixture, administered once on day 7 after laser irradiation (FIG. 7B, 7C).
The test system of the next series is HUVECs tube formation. Kind of series: Stability confirmation by tube formation assay after storage. In kind it is physicochemical, human. As to conditions: stored for 6 weeks at 4° C. and room temperature (FIG. 11). Here is the method:
In order to confirm the stability of the mixture of PEDF 34-mer peptide and collagen, the mixture of PEDF 34-mer peptide and collagen and the PEDF 34-mer peptide were stored for 6 weeks at 4° C. and room temperature (RT), and stability of PEDF 34-mer peptide and PEDF 34-mer peptide and collagen mixture, which were prepared immediately before the experiment, were compared.
Tube formation assay for each mixture was performed to confirm angiogenesis inhibitory ability.

As for “DPFFKVPVNKLAAAVSNFGYDLYRVRSSTSPTTN (DPFFKVPVNKLAAAVSNFGYDLYRVRSSTSPTTN; pigemented epithelium derived factor peptide)”, the “inhibitory effect on tube formation” value was “same as that of the 34-mer pigment epithelium derived factor peptide and collagen type I mixture administration group” in the series with HUVECs cells (carrier comparison: 0.1% collagen type I, hyaluronic acid or gelatin, alone or with peptide 0.02-500 pmol/ml (FIG. 4)); “greatest inhibitory effect on tube formation” in the series on HUVECs cells (peptide alone 0.2 pg/ml, VEGF-165-induced HUVECs, 4 hours (FIG. 1A, 1B)). For the same substance, the tube formation result was “the tube formation increased again” in the series with HUVECs cells (peptide alone at higher concentrations (up to 5 pmol/ml), 4 hours (FIG. 1A, 1B)) and “the tube formation increased rapidly” with HUVECs cells (peptide at high concentration, alone or mixed with 0.05 or 0.1% collagen type I (FIG. 3)). Moreover, the “size of neovascularization (CNV)” value is listed as “increase neovascularization (CNV) again” in series [1] (peptide 10 pmol); “significantly reduced” in series [1] (peptide 0.01, 0.5 and 0.1 pmol). Besides, in series [2], the angiogenesis inhibitory effect result is given as “almost no angiogenesis inhibitory effect”. For the same substance, in the series on HUVECs tube formation, the “stability: tube formation inhibition after storage compared with preparation made immediately before the experiment” value is given as “did not inhibit the tube formation”.
